According to patent US9926281B2 (priority 2014, dated 2018):

Key:
human ADAMTS-5 = human ADAMTS-5 (Homo sapiens (Human), UniProt Q9UNA0); details: read-out: hADAMTS-5 potency IC50
Description: Finally, the fluorescence is read on the Envision (Perkin Elmer) after an incubation of 90 min at 37° C.

human TACE = human TACE (Homo sapiens (Human), UniProt P78536); details: read-out: TACE potency IC50
human MMP13 = human MMP13 (Homo sapiens (Human), UniProt P45452); details: read-out: hMMP-13 potency IC50
Description: Human MMP13 is preactivated by incubated the enzyme in the same buffer complemented with 1 mM freshly prepared p-Aminophenylmercuric acetate (AMPA) for 1 hour at 37° C.

Chain of human ADAMTS-5 (Q9UNA0 262-930): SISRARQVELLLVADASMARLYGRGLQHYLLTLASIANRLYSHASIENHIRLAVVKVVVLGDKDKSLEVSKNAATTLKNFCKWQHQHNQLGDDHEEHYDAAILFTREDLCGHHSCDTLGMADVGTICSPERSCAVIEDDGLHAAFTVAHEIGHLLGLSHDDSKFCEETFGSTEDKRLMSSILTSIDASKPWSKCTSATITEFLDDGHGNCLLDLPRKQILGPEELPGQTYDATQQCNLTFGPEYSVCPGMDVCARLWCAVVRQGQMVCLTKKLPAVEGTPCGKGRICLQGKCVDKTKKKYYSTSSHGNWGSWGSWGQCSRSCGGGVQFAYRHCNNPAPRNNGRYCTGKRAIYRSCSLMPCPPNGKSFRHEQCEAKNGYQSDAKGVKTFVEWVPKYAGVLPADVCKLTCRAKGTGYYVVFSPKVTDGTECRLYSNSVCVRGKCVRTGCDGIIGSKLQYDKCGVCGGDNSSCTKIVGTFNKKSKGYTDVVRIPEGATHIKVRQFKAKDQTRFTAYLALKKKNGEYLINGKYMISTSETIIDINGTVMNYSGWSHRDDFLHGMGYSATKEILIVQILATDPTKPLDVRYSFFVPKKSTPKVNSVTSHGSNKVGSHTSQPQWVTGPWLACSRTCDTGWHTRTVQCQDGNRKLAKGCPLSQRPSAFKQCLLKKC
Chain of human TACE (P78536 whole entry, looked up, change not shown): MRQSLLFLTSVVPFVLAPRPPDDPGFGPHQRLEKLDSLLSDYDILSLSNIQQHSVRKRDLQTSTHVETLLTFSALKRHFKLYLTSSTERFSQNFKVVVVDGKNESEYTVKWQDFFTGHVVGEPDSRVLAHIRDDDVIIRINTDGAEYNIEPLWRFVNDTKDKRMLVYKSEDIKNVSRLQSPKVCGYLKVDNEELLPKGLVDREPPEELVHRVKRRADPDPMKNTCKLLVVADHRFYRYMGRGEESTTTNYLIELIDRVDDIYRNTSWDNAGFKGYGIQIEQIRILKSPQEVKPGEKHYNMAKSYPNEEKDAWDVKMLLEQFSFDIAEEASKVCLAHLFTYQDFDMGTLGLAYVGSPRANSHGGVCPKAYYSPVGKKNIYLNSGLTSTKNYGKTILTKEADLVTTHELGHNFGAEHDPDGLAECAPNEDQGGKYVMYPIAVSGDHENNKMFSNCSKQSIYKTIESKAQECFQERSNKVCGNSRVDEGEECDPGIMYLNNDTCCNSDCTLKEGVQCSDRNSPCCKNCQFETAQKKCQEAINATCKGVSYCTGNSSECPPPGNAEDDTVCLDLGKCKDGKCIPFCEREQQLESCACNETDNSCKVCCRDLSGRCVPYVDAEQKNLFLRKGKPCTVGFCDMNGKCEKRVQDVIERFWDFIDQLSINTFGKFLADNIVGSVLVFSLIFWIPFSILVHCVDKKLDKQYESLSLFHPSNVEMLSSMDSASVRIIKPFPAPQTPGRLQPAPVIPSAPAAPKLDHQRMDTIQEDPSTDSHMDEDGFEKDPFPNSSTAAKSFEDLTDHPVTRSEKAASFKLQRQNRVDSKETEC

Structure (SMILES)	IC50 (human ADAMTS-5) [nM]	IC50 (human TACE) [nM]	IC50 (human MMP13) [nM]
Cc1cc(C2(CCC(=O)N3CCN(c4cc(F)cc(F)c4)[C@@H](C)C3)NC(=O)NC2=O)no1 (stereo partly drawn) [compound 387, 5-[3-[(3S)-4-(3,5-difluorophenyl)-3-methyl-piperazin-1-yl]-3-oxo-propyl]-5-(5-methylisoxazol-3-yl)imidazolidine-2,4-dione]	37	> 4000	
CNc1cc(N2CCN(C(=O)CC[C@@]3(C)NC(=O)NC3=O)C[C@@H]2C)ccc1Cl [compound 392, (5R)-5-[3-[(3S)-4-[4-chloro-3-(methylamino)phenyl]-3-methyl-piperazin-1-yl]-3-oxo-propyl]-5-methyl-imidazolidine-2,4-dione]	567	> 20000	
C[C@H]1CN(C(=O)CCC2(c3ccn(C)n3)NC(=O)NC2=O)CCN1c1cc(F)cc(F)c1 (stereo partly drawn) [compound 394, 5-[3-[(3S)-4-(3,5-difluorophenyl)-3-methyl-piperazin-1-yl]-3-oxo-propyl]-5-(1-methylpyrazol-3-yl)imidazolidine-2,4-dione]	49	> 20000	
Cc1nc(C2(CCC(=O)N3CCN(c4cc(F)cc(F)c4)[C@@H](C)C3)NC(=O)NC2=O)co1 (stereo partly drawn) [compound 395, 5-[3-[(3S)-4-(3,5-difluorophenyl)-3-methyl-piperazin-1-yl]-3-oxo-propyl]-5-(2-methyloxazol-4-yl)imidazolidine-2,4-dione]	39	> 20000	
Cc1cc(N2CCN(C(=O)CC[C@@]3(C)NC(=O)NC3=O)C[C@@H]2C)cc(C)c1Cl [compound 400, (5R)-5-[3-[(3S)-4-(4-chloro-3,5-dimethyl-phenyl)-3-methyl-piperazin-1-yl]-3-oxo-propyl]-5-methyl-imidazolidine-2,4-dione]	383	2930	
COCC1(CC(C)C(=O)N2CCN(c3cc(Cl)cc(Cl)c3C)[C@@H](C)C2)NC(=O)NC1=O (stereo partly drawn) [compound 430, 5-(3-((S)-4-(3,5-dichloro-2-methylphenyl)-3-methylpiperazin-1-yl)-2-methyl-3-oxopropyl)-5-(methoxymethyl)imidazolidine-2,4-dione]			> 20000
CC(CC1NC(=O)NC1=O)C(=O)N1CCN(c2ccc(F)c(Cl)c2)[C@@H](C)C1 (stereo partly drawn) [compound 441, 5-(3-((S)-4-(3-chloro-4-fluorophenyl)-3-methylpiperazin-1-yl)-2-methyl-3-oxopropyl)imidazolidine-2,4-dione]	59	> 20000	
CC(CC1(c2ccccn2)NC(=O)NC1=O)C(=O)N1CCN(c2cc(Cl)cc(Cl)c2)[C@@H](C)C1 (stereo partly drawn) [compound 442, 5-(3-((S)-4-(3,5-dichlorophenyl)-3-methylpiperazin-1-yl)-2-methyl-3-oxopropyl)-5-(pyridin-2-yl)imidazolidine-2,4-dione]	24	789	
CCC1(CC(C)C(=O)N2CCN(c3ccc(F)c(Cl)c3)[C@@H](C)C2)NC(=O)NC1=O (stereo partly drawn) [compound 444, 5-(3-((S)-4-(3-chloro-4-fluorophenyl)-3-methylpiperazin-1-yl)-2-methyl-3-oxopropyl)-5-ethylimidazolidine-2,4-dione]	25	> 4000	
CC(CC1(c2ccccn2)NC(=O)NC1=O)C(=O)N1CCN(c2cccc(Cl)c2)[C@@H](C)C1 (stereo partly drawn) [compound 446, 5-(3-((S)-4-(3-chlorophenyl)-3-methylpiperazin-1-yl)-2-methyl-3-oxopropyl)-5-(pyridin-2-yl)imidazolidine-2,4-dione]	19	840	
Cc1cccc(C2(CCC(=O)N3CCN(c4ccc(F)c(Cl)c4)[C@@H](C)C3)NC(=O)NC2=O)n1 (stereo partly drawn) [compound 447, 5-[3-[(3S)-4-(3-chloro-4-fluoro-phenyl)-3-methyl-piperazin-1-yl]-3-oxo-propyl]-5-(6-methyl-2-pyridyl)imidazolidine-2,4-dione]	56	3620	
COCC1(CC(C)C(=O)N2CCN(c3cc(F)c(Cl)c(F)c3)CC2)NC(=O)NC1=O (stereo not drawn) [compound 448]	19	2990	
COC(CC1(C)NC(=O)NC1=O)C(=O)N1CCN(c2ccc(F)c(Cl)c2)[C@@H](C)C1 (stereo partly drawn) [compound 450, 5-(3-((S)-4-(3-chloro-4-fluorophenyl)-3-methylpiperazin-1-yl)-2-methoxy-3-oxopropyl)-5-methylimidazolidine-2,4-dione]	58	> 20000	
C[C@H]1CN(C(=O)CCC2(c3cccnc3)NC(=O)NC2=O)CCN1c1ccc(Cl)c(Cl)c1 (stereo partly drawn) [compound 453, 5-[3-[(3S)-4-(3,4-dichlorophenyl)-3-methyl-piperazin-1-yl]-3-oxo-propyl]-5-(3-pyridyl)imidazolidine-2,4-dione]	36	3180	
Cc1cccc(C2(CCC(=O)N3CCN(c4ccc(Cl)c(F)c4)[C@@H](C)C3)NC(=O)NC2=O)n1 (stereo partly drawn) [compound 454, 5-[3-[(3S)-4-(4-chloro-3-fluoro-phenyl)-3-methyl-piperazin-1-yl]-3-oxo-propyl]-5-(6-methyl-2-pyridyl)imidazolidine-2,4-dione]	35	2980	
Cc1cc(N2CCN(C(=O)C(C)CC3(C4CC4)NC(=O)NC3=O)C[C@@H]2C)ccc1F (stereo partly drawn) [compound 456, 5-cyclopropyl-5-(3-((S)-4-(4-fluoro-3-methylphenyl)-3-methylpiperazin-1-yl)-2-methyl-3-oxopropyl)imidazolidine-2,4-dione]	27	> 4000	
C[C@H]1CN(C(=O)CCC2(c3ccccn3)NC(=O)NC2=O)CCN1c1ccc(Cl)c(Cl)c1 (stereo partly drawn) [compound 458, 5-[3-[(3S)-4-(3,4-dichlorophenyl)-3-methyl-piperazin-1-yl]-3-oxo-propyl]-5-(2-pyridyl)imidazolidine-2,4-dione]	21	2380	
C[C@H]1CN(C(=O)CCC2(c3ccccn3)NC(=O)NC2=O)CCN1c1cc(Cl)cc(Cl)c1 (stereo partly drawn) [compound 459, 5-[3-[(3S)-4-(3,5-dichlorophenyl)-3-methyl-piperazin-1-yl]-3-oxo-propyl]-5-(2-pyridyl)imidazolidine-2,4-dione]	46	1740	
C[C@H]1CN(C(=O)CCC2(c3cnccn3)NC(=O)NC2=O)CCN1c1ccc(Cl)c(Cl)c1 (stereo partly drawn) [compound 460, 5-[3-[(3S)-4-(3,4-dichlorophenyl)-3-methyl-piperazin-1-yl]-3-oxo-propyl]-5-pyrazin-2-yl-imidazolidine-2,4-dione]	30	> 4000	
C[C@H]1CN(C(=O)CCC2(c3cnccn3)NC(=O)NC2=O)CCN1c1cc(Cl)cc(Cl)c1 (stereo partly drawn) [compound 461, 5-[3-[(3S)-4-(3,5-dichlorophenyl)-3-methyl-piperazin-1-yl]-3-oxo-propyl]-5-pyrazin-2-yl-imidazolidine-2,4-dione]	39	2540	
C[C@H]1CN(C(=O)CCC2(c3ncccn3)NC(=O)NC2=O)CCN1c1ccc(Cl)c(Cl)c1 (stereo partly drawn) [compound 462, 5-[3-[(3S)-4-(3,4-dichlorophenyl)-3-methyl-piperazin-1-yl]-3-oxo-propyl]-5-pyrimidin-2-yl-imidazolidine-2,4-dione]	22	> 4000	
C[C@H]1CN(C(=O)CCC2(c3ncccn3)NC(=O)NC2=O)CCN1c1cc(F)cc(Cl)c1 (stereo partly drawn) [compound 463, 5-[3-[(3S)-4-(3-chloro-5-fluoro-phenyl)-3-methyl-piperazin-1-yl]-3-oxo-propyl]-5-pyrimidin-2-yl-imidazolidine-2,4-dione]	46	> 4000	
Cc1ccc(C2(CCC(=O)N3CCN(c4ccc(Cl)c(Cl)c4)[C@@H](C)C3)NC(=O)NC2=O)cn1 (stereo partly drawn) [compound 464, 5-[3-[(3S)-4-(3,4-dichlorophenyl)-3-methyl-piperazin-1-yl]-3-oxo-propyl]-5-(6-methyl-3-pyridyl)imidazolidine-2,4-dione]	26	> 4000	
C[C@H]1CN(C(=O)CCC2(c3cocn3)NC(=O)NC2=O)CCN1c1cc(Cl)cc(Cl)c1 (stereo partly drawn) [compound 465, 5-[3-[(3S)-4-(3,5-dichlorophenyl)-3-methyl-piperazin-1-yl]-3-oxo-propyl]-5-oxazol-4-yl-imidazolidine-2,4-dione]	62	3500	
C[C@H]1CN(C(=O)CCC2(c3cn(C)cn3)NC(=O)NC2=O)CCN1c1cc(Cl)cc(Cl)c1 (stereo partly drawn) [compound 466, 5-[3-[(3S)-4-(3,5-dichlorophenyl)-3-methyl-piperazin-1-yl]-3-oxo-propyl]-5-(1-methylimidazol-4-yl)imidazolidine-2,4-dione]	55	2640	
C[C@H]1CN(C(=O)CCC2(c3cn(C)cn3)NC(=O)NC2=O)CCN1c1ccc(F)c(Cl)c1 (stereo partly drawn) [compound 467, 5-[3-[(3S)-4-(3-chloro-4-fluoro-phenyl)-3-methyl-piperazin-1-yl]-3-oxo-propyl]-5-(1-methylimidazol-4-yl)imidazolidine-2,4-dione]	42	> 4000	
Cc1cc(N2CCN(C(=O)CC[C@@]3(C)NC(=O)NC3=O)C[C@@H]2C)cc(C)c1Cl [compound 470, (5R)-5-[3-[(3S)-4-(4-chloro-3,5-dimethyl-phenyl)-3-methyl-piperazin-1-yl]-3-oxo-propyl]-5-methyl-imidazolidine-2,4-dione]	383	2930	
C[C@H]1CN(C(=O)CC[C@@]2(C)NC(=O)NC2=O)CCN1c1ccc(Cl)c(C(F)(F)F)c1 [compound 472, (5R)-5-[3-[(3S)-4-[4-chloro-3-(trifluoromethyl)phenyl]-3-methyl-piperazin-1-yl]-3-oxo-propyl]-5-methyl-imidazolidine-2,4-dione]	899	> 4000	
COCC1(CC(C)C(=O)N2CCN(c3ccc(Cl)c(C(F)(F)F)c3)[C@@H](C)C2)NC(=O)NC1=O (stereo partly drawn) [compound 478, 5-{3-[(S)-4-(4-Chloro-3-trifluoromethyl-phenyl)-3-methyl-piperazin-1-yl]-2-methyl-3-oxo-propyl}-5-methoxymethyl-imidazolidine-2,4-dione]	61	> 4000	
